Data set [1] can be described thus: Brain-plasma Pharmacokinetics. The note with it: mouse, 20 mg/kg.
Procedure: Nine male CD-1 mice (ICR mouse) aged 6 to 9 weeks were treated with the compounds according to the Examples at a concentration of 20 mg/kg. 0.025 mL of blood and brain tissue were collected at 1 hour, 8 hours, and 24 hours post-treatment, respectively. The collected blood was placed in an EDTA-K2 tube, centrifuged at 4°C at 3,200 x g for 10 minutes, and the supernatant plasma was collected. The brain tissue samples were collected immediately after euthanizing the CD-1 mice after blood collection and performing cardiac perfusion with cold saline. After collection, the brain tissues were washed with cold saline, wiped and dried, weighed, and homogenized using a homogenization buffer (15 mM PBS (pH 7.4): MeOH = 2:1) at a ratio of 1:3 (1 g of tissue to 3 mL of buffer, dilution ratio 4). Plasma and homogenized brain tissue samples were each transferred to a polypropylene microcentrifuge tube and stored at -60°C or lower. The concentration of compounds distributed in plasma and brain tissue was analyzed using LC-MS/MS, and the distribution in brain tissue compared to plasma was calculated as follows. Brain-to-plasma ratio = AUC(0-t) brain tissue /AUC(0-t) plasma [formula]
In the Brain-plasma Pharmacokinetics assay, when a brain-to-plasma ratio value was 0.05 or more and less than 0.1, + was indicated, when a brain-to-plasma ratio value was 0.1 or more and less than 0.25, ++ was indicated, and when a brain-to-plasma ratio value was more than 0.25, +++ was indicated.
The next data set concerns H358 cells. Put plainly: Cell viability (3D spheroid, 3D CellTiter-Glo). The class given is cell-based. The note with it: Homo sapiens, NCI-H358, 120 h; H358 spheroids, 5 days treatment. As for the experimental part: Human non-small cell lung cancer cell line H358 cells were purchased from the Korean Cell Line Bank. Cancer cell lines were cultured in the recommended RPMI-1640 medium supplemented with 10% fetal bovine serum (FBS) and 1% penicillin/streptomycin. Monolayer-cultured cancer cell lines were detached by treatment with Trypsin/EDTA, and 100 µL of cell suspension containing 4 x 10^3 cells was each dispensed into SPL3D™ Cell Floater, 96-well round plate, through cell line counting. After culturing for 72 hours to form spheroid, the cells were individually treated with the compounds according to the Examples, which had been serially diluted (minimum 1.5 nM, maximum 10 µM in concentration), and then cultured in a cell incubator for 5 days. To analyze cell viability, the cells were treated with 50 uL of 3D CellTiter-Glo, stirred for 5 minutes at 500 rpm in a plate shaker from Thermo Fisher Scientific, and incubated for 25 minutes at room temperature. Then, the luminescent values were measured using a Varioskan equipment from Thermo Fisher Scientific. IC50 values were obtained using GraphPad's Prism from the measured values depending on the concentration.
In the cell viability assay, when an IC50 value was 50 nM or more, + was indicated, when an IC50 value was 10 nM or more and less than 50 nM, ++ was indicated, and when an IC50 value was less than 10 nM, +++ was indicated.
For orientation: Cellular ATP, detected with luciferase, serves as a proxy for viable cell number.

A further data set deals with phospho-ERK. Put plainly: phospho-ERK assay (AlphaLisa) in H358 cells. The following applies: Homo sapiens, NCI-H358, 1.5 hours incubation, read-out: pERK assay (IC50). Format: cell-based. On the procedure: H358 [20,000 cell/well] was contained in 40 µL of the cell culture solution (RPMI, 10% FBS, penicillin, streptomycin) and placed on a 384-well plate. After 24 hours, the serially diluted compound according to the Examples (concentration of minimum 0.13 nM, maximum 10 µM) was contained in 10 µL of the cell culture solution, put into wells containing cells, and incubated in a cell incubator for 1.5 hours. As a positive control group, the selective SHP2 inhibitor, TNO155 (Chemietek, US; concentration ranging from 0.13 nM to 10 µM) was used.
Thereafter, phospho-ERK was labeled using an AlphaLisa system from PerkinElmer according to the manufacturer's instructions, and then fluorescence (680 nm excitation wavelength, 615 nm emission wavelength) values were measured using a Varioskan equipment from Thermo. IC50 values were obtained using Graphad's Prism from the measured values depending on the concentration.
Intracellular SHP2 activity can be confirmed by measuring the degree of phosphorylation of ERK (extracellular signal regulated kinase), which represents Ras/Raf/ERK, a downstream signal pathway of SHP2. Inhibition of ERK phosphorylation by SHP2 inhibitors was confirmed through phospho-ERK analysis, which confirmed that the SHP2 inhibitors of the present disclosure have excellent activity in inhibiting ERK phosphorylation mediated by SHP2.
In general terms: Bead proximity is the source of the signal in Alpha formats.

In a further data set the target is T1, SHP2 (Homo sapiens, UniProt Q06124).
T1 construct: SHP2 (full length, diluted to 100 pM final concentration in reaction buffer, BPS bioscience, US); purchased BPS bioscience, US
T1 sequence (Q06124 1-593): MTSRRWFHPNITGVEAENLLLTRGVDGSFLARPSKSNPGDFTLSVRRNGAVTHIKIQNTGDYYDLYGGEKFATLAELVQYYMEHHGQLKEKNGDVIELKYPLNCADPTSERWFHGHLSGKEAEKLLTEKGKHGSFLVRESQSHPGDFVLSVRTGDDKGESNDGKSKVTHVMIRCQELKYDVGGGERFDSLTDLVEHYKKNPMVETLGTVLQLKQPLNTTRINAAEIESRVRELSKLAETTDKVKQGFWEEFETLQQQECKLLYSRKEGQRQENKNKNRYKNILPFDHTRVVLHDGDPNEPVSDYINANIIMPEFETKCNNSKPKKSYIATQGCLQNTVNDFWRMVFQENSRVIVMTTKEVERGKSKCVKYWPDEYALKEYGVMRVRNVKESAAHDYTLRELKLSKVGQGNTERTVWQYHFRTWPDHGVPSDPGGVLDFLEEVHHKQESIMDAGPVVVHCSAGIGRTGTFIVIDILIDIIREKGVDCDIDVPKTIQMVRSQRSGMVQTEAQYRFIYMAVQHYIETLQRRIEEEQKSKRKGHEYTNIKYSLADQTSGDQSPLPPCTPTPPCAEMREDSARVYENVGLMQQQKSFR
Put plainly: Phosphatase assay (PTPase assay, DiFMUP substrate). Format: biochemical. The following applies: full length SHP2 100 pM activated with SHP2 activating peptide, DiFMUP 80 µM, 2 hours; read-out: PTPase assay (IC50). As for the experimental part:
IC50 values were measured using 6,8-difluoro-4-methylumbelliferyl phosphate (DiFMUP) as a substrate. The reaction was performed in a 384-well plate, and fluorescence measurement values were obtained using an EnVision plate reader from PerkinElmer.
SHP2 (full length, diluted to 100 pM final concentration in reaction buffer, BPS bioscience, US) was incubated with the SHP2 activating peptide in reaction buffer (60 mM HEPES (pH 7.2), 75 mM NaCl, 75 mM KCl, 1 mM EDTA, 5 mM DTT, 0.05% P-20) for 30 minutes to activate SHP2. After activation, DMSO [1% (V/V) or the compound according to the Examples (concentration ranging from 0.6 nM to 10 µM)] was added. As a positive control group, the selective SHP2 inhibitors SHP099 (6-(4-amino-4-methylpiperidin-1-yl)-3-(2,3-dichlorophenyl)pyrazin-2-amine, FOCUS bioscience, Austrailia; concentration ranging from 0.6 nM to 10 µM) and TNO155 ((3S,4S)-8-(6-amino-5-((2-amino-3-chloropyridin-4-yl)thio)pyrazin-2-yl)-3-methyl-2-oxa-8-azaspiro[4.5]decan-4-amine, Chemietek, US; concentration ranging from 0.6 nM to 10 µM) were used. [drawing 184]
DiFMUP (80 µM) was added to the reaction and incubated for a total of 2 hours to allow for the reaction to proceed. Thereafter, fluorescence (340 nm excitation, 450 nm emission) values were measured. IC50 values were obtained using Graphad's Prism from the measured values depending on the concentration.
In the phosphatase assay (PTPase assay), when an IC50 value was 100 nM or more, + was indicated, when an IC50 value was 3 nM or more and less than 100 nM, ++ was indicated, and when an IC50 value was less than 3 nM, +++ was indicated.

Each structure is given as a SMILES string. Where only a bound is given, the exact number is not on record here.

Usually Kp stands for the ratio of the level in a tissue or fluid to that in plasma or blood. One may read the IC50 as the concentration at which inhibition is half-maximal. `Cn1cnc2ccc(Sc3cnc(N4CCC5(CC4)Cc4ccccc4[C@H]5N)cn3)c(Cl)c2c1=O` [Example 7, (S)-6-((5-(1-amino-1,3-dihydrospiro[indene-2,4'-piperidin]-1'-yl)pyrazin-2-yl)thio)-5-chloro-3-methylquinazolin-4(3H)-one] showed a Kp at 24 h in data set [1] (brain) of 0.1 to 0.25. Further, the values for the IC50 in the data set on H358 cells, in the data set with phospho-ERK and at SHP2 were less than 0.01 µM, less than 0.045 µM and less than 0.003 µM, respectively.

The compound `COC(C)(C)Cn1cnc2ccc(Sc3cnc(N4CCC5(CC4)CO[C@@H](C)[C@H]5N)cn3)c(Cl)c2c1=O` [Example 18, 6-((5-((3S,4S)-4-amino-3-methyl-2-oxa-8-azaspiro[4.5]decan-8-yl)pyrazin-2-yl)thio)-5-chloro-3-(2-methoxy-2-methylpropyl)quinazolin-4(3H)-one] yielded a Kp at 24 h in data set [1] (male, CD-1 (ICR), brain/plasma) greater than 0.25. Further, the half-maximal inhibitory concentration (IC50) in the data set with H358 cells is less than 0.01 µM; with phospho-ERK, less than 0.045 µM; at SHP2, less than 0.003 µM.

For `CC(C)(O)Cn1cnc2ccc(Sc3cnc(N4CCC5(CC4)Cc4ccccc4[C@H]5N)cn3)c(Cl)c2c1=O` [Example 25, (S)-6-((5-(1-amino-1,3-dihydrospiro[indene-2,4'-piperidin]-1'-yl)pyrazin-2-yl)thio)-5-chloro-3-(2-hydroxy-2-methylpropyl)quinazolin-4(3H)-one], the Kp at 24 h in data set [1] (male, CD-1 (ICR), brain/plasma) was in the range of 0.05 to 0.1. The IC50 was less than 0.01 µM in the data set with H358 cells, less than 0.045 µM in the data set on phospho-ERK and less than 0.003 µM on SHP2.

As to `COC(C)(C)Cn1cnc2ccc(Sc3cnc(N4CCC5(CC4)Cc4ccccc4[C@H]5N)cn3)c(Cl)c2c1=O` [Example 27, (S)-6-((5-(1-amino-1,3-dihydrospiro[indene-2,4'-piperidin]-1'-yl)pyrazin-2-yl)thio)-5-chloro-3-(2-methoxy-2-methylpropyl)quinazolin-4(3H)-one], the Kp at 24 h in data set [1] (male, CD-1 (ICR), brain/plasma) is greater than 0.25. Also, the results for the IC50 in the data set with H358 cells, with phospho-ERK and on SHP2 were less than 0.01 µM, less than 0.045 µM and less than 0.003 µM, respectively.

Regarding `COC(C)(C)Cn1cnc2ccc(Sc3cnc(N4CCC5(CC4)Cc4ccccc4[C@H]5N)cn3)cc2c1=O` [Example 29, (S)-6-((5-(1-amino-1,3-dihydrospiro[indene-2,4'-piperidin]-1'-yl)pyrazin-2-yl)thio)-3-(2-methoxy-2-methylpropyl)quinazolin-4(3H)-one], in data set [1] (male, CD-1 (ICR), brain/plasma), the Kp at 24 h is greater than 0.25. Further, the IC50 is less than 0.01 µM in the data set with H358 cells, 0.045 to 1.5 µM with phospho-ERK and 0.003 to 0.1 µM at SHP2.

`N[C@@H]1c2ccccc2CC12CCN(c1cnc(Sc3ccc4ncn(-c5cccnc5)c(=O)c4c3Cl)cn1)CC2` [Example 31, (S)-6-((5-(1-amino-1,3-dihydrospiro[indene-2,4'-piperidin]-1'-yl)pyrazin-2-yl)thio)-5-chloro-3-(pyridin-3-yl)quinazolin-4(3H)-one]: the Kp at 24 h in data set [1] (male, CD-1 (ICR), brain/plasma) lay within 0.1 to 0.25. Further, the IC50 with H358 cells was less than 0.01 µM; in the data set with phospho-ERK it was 0.045 to 1.5 µM.

Regarding `COC(C)(C)Cn1cnc2ccc(Sc3cnc(N4CCC5(CC4)Cc4ncsc4[C@H]5N)cn3)c(Cl)c2c1=O` [Example 32, (S)-6-((5-(6-amino-4,6-dihydrospiro[cyclopenta[d]thiazole-5,4'-piperidin]-1'-yl)pyrazin-2-yl)thio)-5-chloro-3-(2-methoxy-2-methylpropyl)quinazolin-4(3H)-one], the Kp at 24 h in data set [1] (male, CD-1 (ICR), brain/plasma) lay within 0.1 to 0.25. Also, the IC50 was less than 0.01 µM with H358 cells and less than 0.045 µM in the data set on phospho-ERK.

`COC(C)(C)Cn1cnc2ccc(Sc3cnc(N4CCC5(CC4)Cc4ccccc4[C@H]5N)nn3)c(Cl)c2c1=O` [Example 34, (S)-6-((3-(1-amino-1,3-dihydrospiro[indene-2,4'-piperidin]-1'-yl)-1,2,4-triazin-6-yl)thio)-5-chloro-3-(2-methoxy-2-methylpropyl)quinazolin-4(3H)-one] showed a concentration ratio (Kp) at 24 h in data set [1] (male, CD-1 (ICR), brain/plasma) of 0.1 to 0.25. The IC50 is less than 0.01 µM with H358 cells and less than 0.003 µM on SHP2.

For the compound `COC(C)(C)Cn1cnc2ccc(Sc3nc(CO)c(N4CCC5(CC4)Cc4ccccc4[C@H]5N)nc3C)c(Cl)c2c1=O` [Example 35, (S)-6-((5-(1-amino-1,3-dihydrospiro[indene-2,4'-piperidin]-1'-yl)-6-(hydroxymethyl)-3-methylpyrazin-2-yl)thio)-5-chloro-3-(2-methoxy-2-methylpropyl)quinazolin-4(3H)-one], the Kp at 24 h in data set [1] (male, CD-1 (ICR), brain/plasma) was 0.1 to 0.25. In addition, the IC50 with H358 cells was less than 0.01 µM; in the data set with phospho-ERK it was 0.045 to 1.5 µM; on SHP2, less than 0.003 µM.

On to `COC(C)(C)Cn1cnc2ccc(Sc3ncc(N4CCC5(CC4)Cc4ccccc4[C@H]5N)nc3N)c(Cl)c2c1=O` [Example 36, (S)-6-((3-amino-5-(1-amino-1,3-dihydrospiro[indene-2,4'-piperidin]-1'-yl)pyrazin-2-yl)thio)-5-chloro-3-(2-methoxy-2-methylpropyl)quinazolin-4(3H)-one], for which the Kp at 24 h in data set [1] (male, CD-1 (ICR), brain/plasma) is 0.05 to 0.1. The IC50 is less than 0.01 µM in the data set on H358 cells, less than 0.045 µM in the data set on phospho-ERK and less than 0.003 µM on SHP2.

In data set [1] (male, CD-1 (ICR), brain/plasma), `COC(C)(C)Cn1cnc2ccc(Sc3ncc(N4CCC5(CC4)CO[C@@H](C)[C@H]5N)nc3N)c(Cl)c2c1=O` [Example 37, 6-((3-amino-5-((3S,4S)-4-amino-3-methyl-2-oxa-8-azaspiro[4.5]decan-8-yl)pyrazin-2-yl)thio)-5-chloro-3-(2-methoxy-2-methylpropyl)quinazolin-4(3H)-one] displayed a partition ratio (Kp) at 24 h of 0.05 to 0.1. Further, the values for the IC50 in the data set with H358 cells, with phospho-ERK and on SHP2 were 0.01 to 0.05 µM, 0.045 to 1.5 µM and 0.003 to 0.1 µM, respectively.

The compound `Cn1ccc2ccc(Sc3cnc(N4CCC5(CC4)Cc4ccccc4[C@H]5N)cn3)c(Cl)c2c1=O` [Example 41, (S)-7-((5-(1-amino-1,3-dihydrospiro[indene-2,4'-piperidin]-1'-yl)pyrazin-2-yl)thio)-8-chloro-2-methylisoquinolin-1(2H)-one] came in with a Kp at 24 h in data set [1] (male, CD-1 (ICR), brain/plasma) greater than 0.25. For the same compound, the IC50 was 0.01 to 0.05 µM in the data set with H358 cells, 0.045 to 1.5 µM in the data set with phospho-ERK and less than 0.003 µM on SHP2.

The values are drawn from EP4647433A1, “SHP2 INHIBITOR AND USES THEREOF” (Kanaph Therapeutics Inc., priority 2023, dated 2024).
